From EP0470275B1, “Skin whitening cosmetics” (priority 1990, dated 1992)

Legend:
[1] = Solubility of linoleic acid in a silicone oil or a mixed silicone oil
pigmentation = experiment: Animal experiments on inhibition of pigmentation (general statement, no method given); assay type: in vivo; details: compared with free fatty acids or alkyl esters thereof

Row | SMILES | Solubility in dimethylpolysiloxane [1] | effects on inhibition of pigmentation (pigmentation)
1 | CCCCC/C=C\C/C=C\CCCCCCCC(=O)O [linoleic acid] | not soluble | 
2 | CCCCCCCCCCCCCCCC(=O)O [palmitic acid] |  | no such significant effects
3 | CCCCCCCCCCCCCCCCCC(=O)O [stearic acid] |  | no such significant effects
4 | CC/C=C\C/C=C\C/C=C\CCCCCCCC(=O)O [α-linolenic acid] | not soluble | 
